# How the values were obtained:
# [1] = 14-day repeat-dose toxicity study in Sprague Dawley rats; format: in vivo; details: for Nasal cavity: Normal: animals normal/examined
# Procedure: (three males and three females). […]
# orally administrated once daily for 14 days. Abnormal behaviors and mortality
# were observed every day and b ody weight was recorded every three days.
# Animals were sacrificed on day 15, and blood parameters and organ
# morphology were recorded. […]
# CHRM2 = biological target: T1, CHRM2 (Homo sapiens, UniProt P08172); test: GPCR calcium flux assay; format: cell-based
# T1 construct: Pharmaron (Beijing, China), contract laboratory
# T1 sequence (P08172 whole entry, species assumed): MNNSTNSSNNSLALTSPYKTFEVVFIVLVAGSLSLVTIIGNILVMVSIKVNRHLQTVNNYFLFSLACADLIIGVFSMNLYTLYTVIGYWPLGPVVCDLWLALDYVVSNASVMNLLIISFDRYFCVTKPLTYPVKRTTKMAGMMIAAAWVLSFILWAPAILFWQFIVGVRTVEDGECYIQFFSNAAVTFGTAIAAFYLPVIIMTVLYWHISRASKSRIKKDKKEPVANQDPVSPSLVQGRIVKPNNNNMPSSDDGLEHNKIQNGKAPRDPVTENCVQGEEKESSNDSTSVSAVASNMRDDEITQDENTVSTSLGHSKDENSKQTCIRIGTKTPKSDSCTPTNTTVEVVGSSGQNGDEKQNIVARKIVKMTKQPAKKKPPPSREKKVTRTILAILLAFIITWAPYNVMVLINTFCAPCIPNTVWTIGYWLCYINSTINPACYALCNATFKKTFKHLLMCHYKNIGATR
# STAT3 and AKT signaling = test: Western blot of p-STAT3 and p-AKT in bone marrow-derived macrophages; format: cell-based, mouse; details: BMMs, IL-4 20 ng/ml + 100 nM PGE2, 10 μM TP-16
# Procedure: Briefly, cells and tumor tissues were lysed with radio immunoprecipitation assay buffer containing phosphatase and protease inhibitor cocktail (MedChemExpress, Monmouth Junction, NJ, USA). A total of 30‐80 μg of normalized total proteins from lysates were run on 6‐10% SDS‐polyacrylamide gels. The proteins transferred from gels to nitrocellulose membranes (Millipore, Billerica, MA, USA) were incubated with primary antibodies overnight at 4°C, washed, and incubated with secondary antibodies for 1 h at room temperature. Visual signals were detected using the LI‐COR Odyssey Infrared Imaging System (LI‐COR Biosciences, Lincoln, NE). Mouse protein primary antibodies used for Western blotting were listed as follows: COX2 (1:1000 dilution, 12282, CST), p‐Stat3 (1:2000 dilution, Tyr^705, 9145, CST), Stat3 (1:1000 dilution, 9139, CST), p‐Akt (1:2000 dilution, Ser^473, 4060, CST), Akt (1:1000 dilution, 9272, CST), Arg‐1 (1:100 dilution, 16001, Proteintech, Rosemont, IL), and GAPDH (1:10000 dilution, Ab181602, Abcam).
# [2] = female, Sprague-Dawley, rat, in vivo, 100 mg/kg/day, 14 days
# [3] = male, Sprague-Dawley, rat, in vivo, 100 mg/kg/day, 14 days
smiles,measurement,setting,value
C[C@H](NC(=O)c1c(Cc2ccc(F)cc2)sc2c1CCOC2)c1ccc(C(=O)O)cc1 [TP-16],Nasal cavity: Normal,"[1]; female rats, 100 mg/kg/day, 14 days",3/3
same,Brain: Normal,[1]; [2],3/3
same,Cervical lymph node: Normal,[1]; [2],3/3
same,Colon: Normal,[1]; [2],3/3
same,Duodenum: Normal,[1]; [2],3/3
same,Esophagus: Normal,[1]; [2],3/3
same,Eye: Normal,[1]; [2],3/3
same,Femur/Bone marrow: Normal,[1]; [2],3/3
same,Harderian gland: Normal,[1]; [2],3/3
same,Heart: Normal,[1]; [2],3/3
same,Ileum: Normal,[1]; [2],3/3
same,Jejunum: Normal,[1]; [2],3/3
same,Kidney: Normal,[1]; [2],3/3
same,Liver: Normal,[1]; [2],3/3
same,Lung: Normal,[1]; [2],3/3
same,Mesenteric lymph node: Normal,[1]; [2],3/3
same,Ovary: Normal,[1]; [2],3/3
same,Pancreas: Normal,[1]; [2],3/3
same,Parathyroid gland: Normal,[1]; [2],3/3
same,Pituitary gland: Normal,[1]; [2],3/3
same,Preputial/Clitoral gland: Normal,[1]; [2],3/3
same,Rectum: Normal,[1]; [2],3/3
same,Salivary gland: Normal,[1]; [2],3/3
same,Skin/ Mammary gland: Normal,[1]; [2],3/3
same,Spleen: Normal,[1]; [2],3/3
same,Stomach: Normal,[1]; [2],3/3
same,Testis: Normal,[1]; [2],3/3
same,Thymus: Normal,[1]; [2],3/3
same,Thyroid gland: Normal,[1]; [2],3/3
same,Trachea: Normal,[1]; [2],3/3
same,Urinary bladder: Normal,[1]; [2],3/3
same,Uterus: Normal,[1]; [2],3/3
same,Vagina: Normal,[1]; [2],3/3
same,Nasal cavity: Normal,"[1]; male rats, 100 mg/kg/day, 14 days",3/3
same,Brain: Normal,[1]; [3],3/3
same,Cervical lymph node: Normal,[1]; [3],3/3
same,Colon: Normal,[1]; [3],3/3
same,Duodenum: Normal,[1]; [3],3/3
same,Epididymis: Normal,[1]; [3],3/3
same,Esophagus: Normal,[1]; [3],3/3
same,Eye: Normal,[1]; [3],3/3
same,Femur/Bone marrow: Normal,[1]; [3],3/3
same,Harderian gland: Normal,[1]; [3],3/3
same,Heart: Normal,[1]; [3],3/3
same,Ileum: Normal,[1]; [3],3/3
same,Jejunum: Normal,[1]; [3],3/3
same,Kidney: Normal,[1]; [3],3/3
same,Liver: Normal,[1]; [3],3/3
same,Lung: Normal,[1]; [3],3/3
same,Mesenteric lymph node: Normal,[1]; [3],3/3
same,Pancreas: Normal,[1]; [3],3/3
same,Parathyroid gland: Normal,[1]; [3],3/3
same,Pituitary gland: Normal,[1]; [3],3/3
same,Preputial/Clitoral gland: Normal,[1]; [3],3/3
same,Prostate: Normal,[1]; [3],3/3
same,Rectum: Normal,[1]; [3],3/3
same,Salivary gland: Normal,[1]; [3],3/3
same,Seminal vesicle: Normal,[1]; [3],3/3
same,Skin/ Mammary gland: Normal,[1]; [3],3/3
same,Spleen: Normal,[1]; [3],3/3
same,Stomach: Normal,[1]; [3],3/3
same,Testis: Normal,[1]; [3],3/3
same,Thymus: Normal,[1]; [3],3/3
same,Thyroid gland: Normal,[1]; [3],3/3
same,Trachea: Normal,[1]; [3],3/3
same,Urinary bladder: Normal,[1]; [3],3/3
same,body weight during 14-day treatment,"[1]; rat, in vivo, po, 100 mg/kg",without statistically significant weight loss
same,"hematological analysis, overall finding","[1]; rat, in vivo, po, 100 mg/kg",no adverse changes
same,"organ morphology, overall finding","[1]; rat, in vivo, po, 100 mg/kg",no abnormalities
same,IC50,CHRM2,> 10 µM
same,IL-4/PGE2-induced phosphorylation of STAT3 and AKT,STAT3 and AKT signaling,significantly reversed
